The record followed here is patent US20240124467A1, “FUSED PYRIMIDINE COMPOUNDS AS INHIBITORS OF MENIN-MLL INTERACTION” (Biomea Fusion, Inc., priority 2020, published 2024).

What all share (format): cell-based
The subject of one assay is K-562. Kind of assay: Cell proliferation inhibition (CellTiter-Glo), K-562 cells. Conditions: Homo sapiens, K562, 96 h; K-562 (BCR-ABL), Day 4; read-out: K-562 IC50 μM (Day 4). On the procedure: (§1) The present example evaluates the ability of compounds described herein, inhibitors of Menin/MLL interaction, to inhibit cell proliferation. The proliferation inhibitory effect was investigated in human MLL-leukemia cells selected on the bases of MLL fusion proteins and listed in the table below.
(§2) ATP is present in all metabolically active cells and is considered as a marker for cell viability and proliferation. The metabolic cell activity was determined using the CellTiter-Glo kit from Promega, an ATP monitoring system based on the production of luminescence by the reaction of ATP with added UltraGlo® recombinant luciferase (Kawano et al., 2016, PLOS One, 8:11(7):e0158888), according to the supplier's experimental recommendations. The assay is based on a 96 well plate format. All experiments were carried out in duplicate in one test occasion.
(§3) Test items were dissolved at 20 mM in DMSO with purity ≥99.9% (Sigma catalog no. D8418) and stored at −20° C. Cells were maintained in RPMI-1640 medium (Invitrogen catalog no. 618700) supplemented with 10% of Heat Inactivated FBS (Invitrogen catalog no. 10500) and 1% Pen-Strep (Invitrogen catalog no. 15140) and cultured at 37° C. in a humidified incubator with 5% CO2. Cell lines were grown in suspension and the cell density was maintained in a range of 5×10^4-1×10^6 viable cells/ml where possible. Cells were pelleted at 130 g×5 min.
(§4) Serial dilutions of compounds 1 to 3 in DMSO 100% were prepared starting from a 2.5 mM solutions (prepared by diluting 1:8 the 20 mM stock solution) to generate a 7 point concentration response curve (CRC). Seven concentrations of test compounds (e.g., 5.00×10^−6-1.67×10^−6-5.56×10^−7-1.85×10^−7-6.17×10^−8-2.06×10^−8-6.86×10^−9 M) were assessed in duplicate in an individual test occasion in parallel in the selected cell lines. KO-539 was used as a reference compound and tested in duplicate at seven similar concentrations. 100% of proliferation was represented by the untreated cells (0.2% DMSO).
(§5) Cell proliferation inhibition was monitored at both the following end points: Day 4 (T4) and Day 7 (T7). For the appropriate cell density during the exponential cell growth and re-supply with fresh compound solution at T4, cells were diluted (1:4) with fresh medium containing the compound concentration (1×).
(§6) For each plate to test, one 0.4 μL copy plate and four 0.3 μL copy plates were stamped into 96-well plates not treated for cell adhesion (Sarstedt—cat. no. 82.1581.001) by acoustic liquid handling (Echo) at a concentration which was 500 fold the final assay concentration. Stamped plates were stored at −20° C.
(§7) On Day 0, the day of the experiment cell line suspensions were counted by Cell Viability Analyser, Vi-CELL (Beckman Coulter AY15292), and diluted with fresh medium to obtain the following cell densities: K-562 500 c/ml, MOLM-13 1,000 c/ml, MV4-11 10,000 c/ml, OCI-AML-3 500 c/ml, and U-937 500-1,000 c/ml. 200 μL/well and 150 μL/well of cell suspension were added into the 0.4 μL/well and 0.3 μL/well compound plates, respectively. Cell plate containing 200 μL/well suspension were incubated at 37° C. in a humidified incubator with 5% CO2. From each well of the 150 μL/well cell assay plate, 100 μL were harvested and transferred into a 96-well Optiplate (Perkin Elmer, cat. no. 6005290). Cell viability was measured as described below.
(§8) On Day 4, 150p/well of fresh medium was added into a new 0.3 μL/well copy compound plates. From each well of the 200 μL/well cell assay plate, 100 μL was sampled for the cell viability measurement as described below. 50p was harvested and added to the 150p/well compound plate prepared as described in the first point to dilute 1:4 the cell suspension. The cell assay plate diluted and containing 200 μL/well suspension was incubated at 37° C. in a humidified incubator with 5% CO2.
(§9) On Day 4, 150p/well of fresh medium was added into a new 0.3 μL/well copy compound plates. […]
Background: In ATP-based viability assays light output follows the ATP content of the culture.

For a further assay, the system named is MOLM-13. Kind of assay: Cell proliferation inhibition (CellTiter-Glo), MOLM-13 cells. As to conditions: Homo sapiens, 96 h; MOLM-13 (MLL-AF9), Day 4; read-out: MOLM-13 Day IC50 μM (Day 4)*. The method, then:
as §1, §2, §3, §4, §5, §6, §7, §8, §9

Another assay has as its system MV4-11. Put plainly: Cell proliferation inhibition (CellTiter-Glo), MV4-11 cells. As to conditions: Homo sapiens, 96 h; MV4-11 (MLL-AF4), Day 4; read-out: MV-4:11 IC50 μM (Day 4)*. The method, then:
as §1, §2, §3, §4, §5, §6, §7, §8, §9

On to `C=CC(=O)N[C@@H]1CCCN(Cc2ccnc(C(=O)Nc3ccc(-c4[nH]c5ncnc(N6CCOCC6)c5c4C)cc3)c2)C1` [Compound B0700-528], for which the IC50 in the assay with K-562 was found to be 1.18 µM; with MOLM-13, 0.462 µM; with MV4-11, 0.464 µM.
With `C=CC(=O)N[C@@H]1CCCN(Cc2ccnc(C(=O)Nc3ccc(-c4cc5c(N6CCOCC6)ncnc5[nH]4)c(F)c3)c2)C1` [Compound B0700-529, (R)-4-((3-acrylamidopiperidin-1-yl)methyl)-N-(3-fluoro-4-(4-morpholino-7H-pyrrolo[2,3-d]pyrimidin-6-yl)phenyl)picolinamide], the results for the IC50 in the assay with K-562, with MOLM-13 and in the assay on MV4-11 were 6.14 µM, 0.351 µM and 0.969 µM, respectively.
As for `C=CC(=O)N[C@@H]1CCCN(Cc2ccc(F)c(C(=O)Nc3ccc(-c4cc5c(N6CCOCC6)ncnc5[nH]4)cc3)c2)C1` [Compound B0700-530], the IC50 in the assay on K-562 was 0.616 µM; in the assay with MOLM-13, 0.28 µM; in the assay on MV4-11 it was 0.314 µM.
For `C=CC(=O)N[C@@H]1CCCN(Cc2ccc(C)c(C(=O)Nc3ccc(-c4cc5c(N6CCOCC6)ncnc5[nH]4)cc3)c2)C1` [Compound B0700-531], in that order: 0.805 µM, 0.311 µM and 0.345 µM.
Regarding `C=CC(=O)N[C@@H]1CCCN(Cc2cccc(S(=O)(=O)Nc3ccc(-c4nc5c(N6CCOCC6)ncnc5s4)cc3)c2)C1` [Compound B0700-532, (R)—N-(1-(3-(N-(4-(7-morpholinothiazolo[5,4-d]pyrimidin-2-yl)phenyl)sulfamoyl)benzyl)piperidin-3-yl)acrylamide], the IC50 with K-562, in the assay on MOLM-13 and in the assay on MV4-11 was > 10 µM in each case.
Take `C=CC(=O)N[C@@H]1CCCN(Cc2cccc(S(=O)(=O)NC3CCN(c4nc5c(N6CCOCC6)ncnc5s4)CC3)c2)C1` [Compound B0700-533]: the IC50 in the assay on K-562, in the assay on MOLM-13 and in the assay with MV4-11 was > 10 µM in each case.
Consider `C=CC(=O)N[C@@H]1CCCN(Cc2cccc(S(=O)(=O)Nc3ccc(-c4nc5c(N6CCOCC6)ncnc5s4)nc3)c2)C1` [Compound B0700-534, (R)—N-(1-(3-(N-(6-(7-morpholinothiazolo[5,4-d]pyrimidin-2-yl)pyridin-3-yl)sulfamoyl)benzyl)piperidin-3-yl)acrylamide], for which the IC50 in the assay with K-562, with MOLM-13 and with MV4-11 was > 10 µM each time.
`C=CC(=O)N[C@@H]1CCN(c2cccc(CS(=O)(=O)Nc3ccc(-c4cc5c(N6CCOCC6)ncnc5[nH]4)cc3)c2)C1` [Compound B0700-535, (R)—N-(1-(3-((N-(4-(4-morpholino-7H-pyrrolo[2,3-d]pyrimidin-6-yl)phenyl)sulfamoyl)methyl)phenyl)pyrrolidin-3-yl)acrylamide]: the IC50 in the assay on K-562 is 7.05 µM; in the assay with MOLM-13, 0.184 µM; in the assay with MV4-11, > 10 µM.
For the compound `C=CC(=O)N[C@H]1CCN(c2cccc(CS(=O)(=O)Nc3ccc(-c4cc5c(N6CCOCC6)ncnc5[nH]4)cn3)c2)C1` [Compound B0700-536], the IC50 in the assay on K-562 was > 10 µM; in the assay on MOLM-13 it was 5.68 µM; in the assay on MV4-11, 3.88 µM.
The corresponding values for `C=CC(=O)N[C@H]1CCN(c2cccc(CS(=O)(=O)NC3CCN(c4nc5c(N6CCOCC6)ncnc5s4)CC3)c2)C1` [Compound B0700-537] are > 10 µM, > 10 µM and > 10 µM.
For the compound `C=CC(=O)N[C@@H]1CCCN(c2cccc(CS(=O)(=O)Nc3ccc(-c4cc5c(N6CCOCC6)ncnc5[nH]4)cc3)c2)C1` [Compound B0700-539], the IC50 was > 10 µM with K-562, 0.374 µM in the assay with MOLM-13 and 0.436 µM in the assay on MV4-11.
The corresponding values for `C=CC(=O)N[C@H]1CCCN(c2cccc(CS(=O)(=O)Nc3ccc(-c4cc5c(N6CCOCC6)ncnc5[nH]4)cc3)c2)C1` [Compound B0700-540] are > 10 µM, 0.329 µM and 0.148 µM.
The corresponding values for `C=CS(=O)(=O)N[C@H]1CCN(c2cccc(CS(=O)(=O)Nc3ccc(-c4cc5c(N6CCOCC6)ncnc5[nH]4)cc3)c2)C1` [Compound B0700-541] are 2.06 µM, 0.193 µM and 0.09 µM.
Consider `C=CS(=O)(=O)N[C@@H]1CCCN(c2cccc(CS(=O)(=O)Nc3ccc(-c4cc5c(N6CCOCC6)ncnc5[nH]4)cc3)c2)C1` [Compound B0700-542, (R)—N-(1-(3-((N-(4-(4-morpholino-7H-pyrrolo[2,3-d]pyrimidin-6-yl)phenyl)sulfamoyl)methyl)phenyl)piperidin-3-yl)ethenesulfonamide], for which the figures for the IC50 in the assay with K-562, with MOLM-13 and in the assay on MV4-11 were 3.3 µM, 0.48 µM and 0.322 µM, respectively.
For the compound `C=CC(=O)N[C@H]1CCN(c2cccc(C(C)S(=O)(=O)Nc3ccc(-c4cc5c(N6CCOCC6)ncnc5[nH]4)cc3)c2)C1` (stereo partly drawn) [Compound B0700-543], the IC50 with K-562 was 9.07 µM; in the assay on MOLM-13, 0.158 µM; in the assay with MV4-11 it was 0.073 µM.
The corresponding values for `C=CC(=O)N[C@@H]1CCCN(c2cccc(C(C)S(=O)(=O)Nc3ccc(-c4cc5c(N6CCOCC6)ncnc5[nH]4)cc3)c2)C1` (stereo partly drawn) [Compound B0700-545] are > 10 µM, 1.07 µM and 0.84 µM.
Regarding `C=CC(=O)N[C@@H]1CCCN(c2cccc([C@@H](C)S(=O)(=O)Nc3ccc(-c4cc5c(N6CCOCC6)ncnc5[nH]4)cc3)c2)C1` [Compound B0700-546], the IC50 with K-562 was > 10 µM; in the assay on MOLM-13, 3.59 µM; in the assay on MV4-11 it was 1.75 µM.
For `C=CC(=O)N[C@@H]1CCCN(c2cccc([C@H](C)S(=O)(=O)Nc3ccc(-c4cc5c(N6CCOCC6)ncnc5[nH]4)cc3)c2)C1` [Compound B0700-547], in that order: > 10 µM, 1.39 µM and 0.418 µM.
Take `C=CC(=O)N[C@@H]1CCCN(Cc2ccnc(C(=O)Nc3ccc(-c4cc5c(N6CCOCC6)ncnc5[nH]4)cc3F)c2)C1` [Compound B0700-549]: the IC50 is > 10 µM in the assay on K-562, 0.475 µM in the assay on MOLM-13 and 0.796 µM with MV4-11.
On to `C/C=C/S(=O)(=O)N[C@@H]1CCCN(Cc2ccnc(C(=O)Nc3ccc(-c4cc5c(N6CCOCC6)ncnc5[nH]4)cc3)c2)C1` [Compound B0700-550], for which the IC50 in the assay with K-562 was > 10 µM; in the assay with MOLM-13, 0.276 µM; in the assay on MV4-11 it was 0.212 µM.
For `C=CC(=O)N[C@@H]1CCCN(c2cccc(C(C)S(=O)(=O)Nc3ccc(-c4cc5c(N6CCOCC6)ncnc5[nH]4)cc3F)c2)C1` (stereo partly drawn) [Compound B0700-559, N-((3R)-1-(3-(1-(N-(2-fluoro-4-(4-morpholino-7H-pyrrolo[2,3-d]pyrimidin-6-yl)phenyl)sulfamoyl)ethyl)phenyl)piperidin-3-yl)acrylamide], in that order: > 10 µM, 3.91 µM and 1.56 µM.

The term IC50 denotes the concentration needed to halve the response being measured.
